Literature values, collected in PubChem BioAssay AID1259409 (Chemical Carcinogenesis Research Information System (CCRIS), 2018).

System: rodent chemically induced tumor inhibition, incidence and multiplicity
Experiment: CCRIS tumor inhibitor studies
Conditions: for outcome: Carcinogen: DIETHYLNITROSAMINE [55-18-5], 0.005, 0.5, 500 PPM FOR 11 OR 43 WKS BEGINNING 1 WK AFTER CARCINOGEN (STUDY DURATION: 45 WKS), Route [Inhibitor]: DIET, Strain/Sex: F344/MALE, Dose [Carcinogen]: 100 MG/KG BW TWICE AT 1 WK INTERVALS (STUDY DURATION: 45 WKS)

Clc1ccc(C(c2ccc(Cl)cc2)C(Cl)(Cl)Cl)cc1
outcome (Dose [Inhibitor]: 0, Dose [Inhibitor]: 0, Species: RAT, Target Tissue: Type of Lesion: LIVER: HEPATOCELLULAR ADENOMA): 55%; 65%, -18%; 50%, 9%; 100%, -82%
outcome (Dose [Inhibitor]: 0, Dose [Inhibitor]: 0, Species: RAT, Target Tissue: Type of Lesion: LIVER: HEPATOCELLULAR CARCINOMA): 60%; 30%, 50%; 65%, -8%; 100%, -67%
tumour outcome (control, treated, inhibition, significance) (Dose [Inhibitor]: 0, 7.5 MG 2/WK FOR 14 WK BEGINNING SIMULTANEOUSLY WITH CARCINOGEN TREATMENT (STUDY DURATION: 1 YR), Route [Inhibitor]: GAVAGE, Species: RAT, Strain/Sex: WISTAR/MALE, Target Tissue: Type of Lesion: LIVER: BENIGN TUMORS, Dose [Carcinogen]: 50 UG 2/WK FOR WK 1-4 OF STUDY THEN 75 UG 2/WK FOR WK 5-8, Promoter: NONE USED): 22/25 (88%), 9/21 (43%), 51%, p<0.001
tumour outcome (control, treated, inhibition, significance) (Dose [Inhibitor]: 0, 7.5 MG 2/WK FOR 14 WK BEGINNING SIMULTANEOUSLY WITH CARCINOGEN TREATMENT (STUDY DURATION: 1 YR), Route [Inhibitor]: GAVAGE, Species: RAT, Strain/Sex: WISTAR/MALE, Target Tissue: Type of Lesion: LIVER: CARCINOMA, Dose [Carcinogen]: 50 UG 2/WK FOR WK 1-4 OF STUDY THEN 75 UG 2/WK FOR WK 5-8, Promoter: NONE USED): 14/25 (56%), 7/21 (33%), 41%, p<0.07

CCCCCCCCCC
tumour outcome (control, treated, inhibition, significance) (Carcinogen: BENZO[A]PYRENE, 50-32-8, Dose [Inhibitor]: 25 MG IN 0.1 ML ACETONE 3/WK ADMINISTERED SIMULTANEOUSLY WITH CARCINOGEN FOR DU RATION OF STUDY (STUDY DURATION: 440 D), Route [Inhibitor]: DERMAL, Species: MOUSE, Strain/Sex: ICR/FEMALE, Target Tissue: Type of Lesion: SKIN: SQUAMOUS CARCINOMA, Dose [Carcinogen]: 5 UG IN 0.1 ML ACETONE 3/WK FOR DURATION OF STUDY, Promoter: NONE USED): 12/50 (24%), 34/50 (68%), -183%, not calculated
tumour outcome (control, treated, inhibition, significance) (Carcinogen: BENZO[A]PYRENE, 50-32-8, Dose [Inhibitor]: 25 MG IN 0.1 ML ACETONE 3/WK ADMINISTERED SIMULTANEOUSLY WITH CARCINOGEN FOR DURATION OF STUDY (STUDY DURATION: 440 D), Route [Inhibitor]: DERMAL, Species: MOUSE, Strain/Sex: ICR/FEMALE, Target Tissue: Type of Lesion: SKIN: PAPILLOMA, Dose [Carcinogen]: 5 UG IN 0.1 ML ACETONE 3/WK FOR DURATION OF STUDY, Promoter: NONE USED): 16/50 (32%), 38/50 (76%), -138%, not calculated

Oc1cc(O)cc(O)c1
tumour outcome (control, treated, inhibition, significance) (Carcinogen: BENZO[A]PYRENE, 50-32-8, Dose [Inhibitor]: 0.03 MMOL/G OF DIET DAILY STARTING 7 D BEFORE AND CONTINUING THROUGH 3 D AFTER CARCINOGEN TREATMENT FOLLOWED BY OBSERVAT, Route [Inhibitor]: ORAL, Species: MOUSE, Strain/Sex: ICR/FEMALE, Target Tissue: Type of Lesion: FORESTOMACH: NEOPLASM, Dose [Carcinogen]: 1 MG IN 0.2 ML CORN OIL 2/WK FOR 4 WK, Promoter: NONE USED): 100%, 83%, 17%, not significant

O=c1[nH]c(=O)n([C@H]2C[C@H](O)[C@@H](CO)O2)cc1Br
tumour outcome (control, treated, inhibition, significance) (Carcinogen: DIETHYLNITROSAMINE, 55-18-5, Dose [Inhibitor]: 0, 100 MG/KG INJECTED 4, 24, AND 48 HR AFTER EACH CARCINOGEN EXPOSURE (STUDY DURATION: 6 MO), Route [Inhibitor]: INTRAPERITONEAL, Species: RAT, Strain/Sex: BD6/MALE, Target Tissue: Type of Lesion: ESOPHAGUS: TUMOR, Dose [Carcinogen]: 80 MG/KG 1 WK FOR 7 WK): 10/40 (25%), 11/35 (31%), -24%, not calculated
tumour outcome (control, treated, inhibition, significance) (Carcinogen: DIETHYLNITROSAMINE, 55-18-5, Dose [Inhibitor]: 0, 100 MG/KG INJECTED 4, 24, AND 48 HR AFTER EACH CARCINOGEN EXPOSURE (STUDY DURATION: 6 MO), Route [Inhibitor]: INTRAPERITONEAL, Species: RAT, Strain/Sex: BD6/MALE, Target Tissue: Type of Lesion: LIVER: TUMOR, Dose [Carcinogen]: 80 MG/KG 1/WK FOR 7 WK): 29/40 (73%), 20/35 (57%), 22%, not calculated

CC(C)CCC[C@@H](C)[C@H]1CC[C@H]2[C@@H]3CC=C4C[C@@H](OS(=O)(=O)O)CC[C@]4(C)[C@H]3CC[C@]12C
tumour outcome (control, treated, inhibition, significance) (Carcinogen: 7,12-DIMETHYLBENZ[A]ANTHRACENE, 57-97-6, Dose [Inhibitor]: 0, 400 UG IN 0.2 ML METHANOL:ACETONE (1:4) APPLIED 10 MIN PRIOR TO EACH PROMOTER DOSE FOR 20 WK (STUDY DURATION: 20 WK), Route [Inhibitor]: DERMAL, Species: MOUSE, Strain/Sex: CD-1/FEMALE, Target Tissue: Type of Lesion: SKIN: TUMOR, Dose [Carcinogen]: 100 UG ONCE, Promoter: 12-O-TETRADECANOYLPHORBOL-13-ACETATE, 16561-29-8, MEZEREIN, 34807-41-5, Promoter: 12-O-TETRADECANOYLPHORBOL-13-ACETATE, 16561-29-8, MEZEREIN, 34807-41-5): 90%, 40%, 56%, not calculated
